Measurements reported in ChEMBL document CHEMBL5247634, “Design, synthesis and anticancer evaluation of selective 2,4-disubstituted pyrimidine CDK9 inhibitors” (Eur J Med Chem, 2022).
pIC50: −log10 of the molar value.

Key:
Homo sapiens = species on record: Homo sapiens; assay: Selectivity index, ratio of IC50 for CDK2/cyclin A (unknown origin) to IC50 for CDK9/cyclin T1 (unknown origin)
L02 = assay: Antiproliferative activity against human L02 cells assessed as cell growth inhibition measured after 72 hrs by MTT assay; type: functional, cell-based; conditions: L02, 72 h
[1] = target: Cyclin-dependent kinase 2/cyclin A (Homo sapiens, UniProt P24941); assay: Inhibition of CDK2/cyclin A (unknown origin) incubated for 1 hr in presence of ATP by ADP-glo luminescent assay; type: protein-complex assay
CDK9/cyclin T1 = CDK9/cyclin T1 (Homo sapiens, UniProt P50750); assay: Inhibition of CDK9/cyclin T1 (unknown origin) using as PDKtide substrate incubated for 1 hr in presence of ATP by ADP-glo luminescent assay; type: protein-complex assay
HCT-116 = assay: Antiproliferative activity against human HCT-116 cells assessed as cell growth inhibition measured after 72 hrs by MTT assay; type: functional, cell-based; conditions: HCT-116, 72 h
PANC-1 = assay: Antiproliferative activity against human PANC-1 cells assessed as cell growth inhibition measured after 72 hrs by MTT assay; type: functional, cell-based; conditions: PANC-1, 72 h
NCI-H1975 = assay: Antiproliferative activity against human NCI-H1975 cells assessed as cell growth inhibition measured after 72 hrs by MTT assay; type: functional, cell-based; conditions: NCI-H1975, 72 h
A-431 = assay: Antiproliferative activity against human A-431 cells assessed as cell growth inhibition measured after 72 hrs by MTT assay; type: functional, cell-based; conditions: A-431, 72 h
[2] = target: Cyclin-dependent kinase 2 (Homo sapiens, UniProt P24941)
Description: Inhibition of CDK2 (unknown origin)

A549 = assay: Antiproliferative activity against human A549 cells assessed as cell growth inhibition measured after 72 hrs by MTT assay; type: functional, cell-based; conditions: A549, 72 h

Chain of CDK9/cyclin T1 (O60563 whole entry): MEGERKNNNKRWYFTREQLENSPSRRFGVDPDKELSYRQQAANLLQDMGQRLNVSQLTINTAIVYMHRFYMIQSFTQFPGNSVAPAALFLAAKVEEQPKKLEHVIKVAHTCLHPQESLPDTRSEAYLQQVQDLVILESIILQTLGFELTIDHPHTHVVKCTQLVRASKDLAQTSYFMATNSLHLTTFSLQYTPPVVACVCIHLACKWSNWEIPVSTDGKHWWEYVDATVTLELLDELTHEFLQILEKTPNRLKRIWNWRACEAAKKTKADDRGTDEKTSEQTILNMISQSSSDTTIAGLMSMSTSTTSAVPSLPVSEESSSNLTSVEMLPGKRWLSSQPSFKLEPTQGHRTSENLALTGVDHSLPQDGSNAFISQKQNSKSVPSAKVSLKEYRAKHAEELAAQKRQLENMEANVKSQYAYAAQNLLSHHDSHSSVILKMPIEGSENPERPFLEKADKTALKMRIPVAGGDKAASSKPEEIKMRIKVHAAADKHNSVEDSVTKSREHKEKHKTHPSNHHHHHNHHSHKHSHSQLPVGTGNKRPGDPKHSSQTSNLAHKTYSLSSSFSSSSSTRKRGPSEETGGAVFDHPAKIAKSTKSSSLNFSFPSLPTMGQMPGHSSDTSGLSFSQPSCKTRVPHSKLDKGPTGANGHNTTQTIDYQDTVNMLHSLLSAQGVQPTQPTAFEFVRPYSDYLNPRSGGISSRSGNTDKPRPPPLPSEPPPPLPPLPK
Chain of CDK9/cyclin T1 (P50750 whole entry): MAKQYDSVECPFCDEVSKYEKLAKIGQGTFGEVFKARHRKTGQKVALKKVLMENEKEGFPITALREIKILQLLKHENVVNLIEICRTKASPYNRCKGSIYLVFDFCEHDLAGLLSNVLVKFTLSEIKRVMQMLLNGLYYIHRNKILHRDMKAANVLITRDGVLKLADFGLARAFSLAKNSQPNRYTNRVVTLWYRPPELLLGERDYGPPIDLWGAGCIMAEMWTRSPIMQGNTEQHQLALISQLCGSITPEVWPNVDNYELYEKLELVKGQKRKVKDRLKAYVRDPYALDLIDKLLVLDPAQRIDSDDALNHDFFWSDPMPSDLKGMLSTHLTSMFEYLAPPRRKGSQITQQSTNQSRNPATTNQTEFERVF

| Compound | Selectivity Index (Homo sapiens) | pIC50 [1] | pIC50 (CDK9/cyclin T1) | pIC50 (HCT-116) | pIC50 (PANC-1) | pIC50 (NCI-H1975) | pIC50 (A-431) | pIC50 [2] | pIC50 (A549) | pIC50 (L02) |
| --- | --- | --- | --- | --- | --- | --- | --- | --- | --- | --- |
| CCN(CC)CCNC(=O)c1ccc(Nc2nccc(-c3ccc(F)cc3OCc3ccccc3)n2)cc1 | 29.8 | 6.10 | 7.57 | 6.89 | 5.97 | 5.92 | 5.88 |  |  | 5.43 |
| COc1cc(F)ccc1-c1ncnc(Nc2cccc(C[S@](C)(=N)=O)c2)n1 [ATUVECICLIB] |  |  |  | 6.59 | 6.96 | 6.14 | 6.47 |  |  | 5.59 |
| CC(C)(C)OC(=O)N1CCN(C(=O)c2ccc(Nc3nccc(-c4ccc(F)cc4OCc4ccccc4)n3)cc2)CC1 | 10.4 | 6.03 | 7.07 | 4.99 | 6.64 | 5.76 | 6.14 |  | 5.79 | 5.24 |
| O=C(NCCF)c1ccc(Nc2nccc(-c3ccc(F)cc3OCc3ccccc3)n2)cc1 |  |  |  | 4.75 | 4.28 | 4.54 | 4.43 |  |  | 4.45 |
| CC(C)N(CCNC(=O)c1ccc(Nc2nccc(-c3ccc(F)cc3OCc3ccccc3)n2)cc1)C(C)C | 15.3 | 6.04 | 7.22 | 6.43 | 6.25 | 6.07 | 6.23 |  |  | 5.68 |

The next lines start with results.

| Selectivity Index (Homo sapiens) | pIC50 [1] | pIC50 (CDK9/cyclin T1) | pIC50 (HCT-116) | pIC50 (PANC-1) | pIC50 (NCI-H1975) | pIC50 (A-431) | pIC50 [2] | pIC50 (A549) | Compound | pIC50 (L02) |
| --- | --- | --- | --- | --- | --- | --- | --- | --- | --- | --- |
|  |  |  |  |  |  |  | 5.61 |  | COc1cc(F)ccc1-c1ccnc(NC(=O)[C@H]2CCC[C@@H](NC(C)=O)C2)c1 |  |
|  |  |  | 5.56 | 5.70 | 5.57 | 5.60 |  | 5.39 | O=C(NCCCN1CCOCC1)c1ccc(Nc2nccc(-c3ccc(F)cc3OCc3ccccc3)n2)cc1 | 4.84 |
|  |  |  | 5.48 | 5.41 | 5.94 | 5.55 |  | 5.42 | CNCCNC(=O)c1ccc(Nc2nccc(-c3ccc(F)cc3OCc3ccccc3)n2)cc1 | 4.73 |
|  |  |  | 5.90 | 5.80 | 5.23 | 5.74 |  | 5.07 | O=C(NCCN1CCCCC1)c1ccc(Nc2nccc(-c3ccc(F)cc3OCc3ccccc3)n2)cc1 | 5.52 |
